How the values were obtained:
[1] = test system: B16-F10; assay: Growth inhibition of mouse B16-F10 cells at 33 uM relative to control; type: functional; conditions: read-out: GI
[2] = test system: B16-F10; assay: Growth inhibition of […]-induced mouse B16-F10 cells at 33 uM relative to control; type: functional; conditions: read-out: GI
[3] = target: T1, Tyrosine-protein phosphatase non-receptor type 2 (Homo sapiens, UniProt P17706); assay: Inhibition of PTPN2 (unknown origin) by Mobility shift assay
T1 sequence (P17706 whole entry): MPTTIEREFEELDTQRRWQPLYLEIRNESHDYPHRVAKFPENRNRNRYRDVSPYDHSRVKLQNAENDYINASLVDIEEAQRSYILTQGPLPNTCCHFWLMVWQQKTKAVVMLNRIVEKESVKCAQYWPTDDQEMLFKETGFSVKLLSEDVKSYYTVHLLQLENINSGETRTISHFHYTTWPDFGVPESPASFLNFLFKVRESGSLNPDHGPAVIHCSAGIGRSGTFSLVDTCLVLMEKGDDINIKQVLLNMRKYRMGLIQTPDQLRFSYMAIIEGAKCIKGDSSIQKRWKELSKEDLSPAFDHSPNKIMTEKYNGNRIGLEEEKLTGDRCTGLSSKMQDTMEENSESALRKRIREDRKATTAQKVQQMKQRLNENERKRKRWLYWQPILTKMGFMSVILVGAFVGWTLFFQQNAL

[4] = target: T2, Tyrosine-protein phosphatase non-receptor type 1 (Homo sapiens, UniProt P18031); assay: Inhibition of PTPN1 (unknown origin) by Mobility shift assay
T2 sequence (P18031 whole entry): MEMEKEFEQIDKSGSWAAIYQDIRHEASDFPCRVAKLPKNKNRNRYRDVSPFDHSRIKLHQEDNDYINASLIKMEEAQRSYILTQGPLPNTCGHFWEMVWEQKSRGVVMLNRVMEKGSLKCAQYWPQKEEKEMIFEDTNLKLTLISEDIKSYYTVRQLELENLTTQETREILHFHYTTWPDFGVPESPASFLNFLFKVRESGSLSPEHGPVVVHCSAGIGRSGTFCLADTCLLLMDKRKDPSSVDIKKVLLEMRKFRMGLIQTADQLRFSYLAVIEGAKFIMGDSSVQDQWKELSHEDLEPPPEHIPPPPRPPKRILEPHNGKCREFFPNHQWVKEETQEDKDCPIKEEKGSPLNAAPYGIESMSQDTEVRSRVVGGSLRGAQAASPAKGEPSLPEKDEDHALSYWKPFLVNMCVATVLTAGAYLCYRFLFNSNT

Row | IC50 [3] | IC50 [4] | Structure (SMILES) | inhibition of growth at 33 µM [1] | inhibition of growth at 33 µM [2]
1 | < 1 nM | < 1 nM | CC(C)CCS(=O)(=O)N1CC=C(c2ccc3cc(O)c(N4CC(=O)NS4(=O)=O)c(F)c3c2)C1 | < 25% | 60%
2 | < 1 nM | 1 nM | O=C1CN(c2c(O)cc3ccc(C4CCN(S(=O)(=O)C5CC5)C4)cc3c2F)S(=O)(=O)N1 (centres undefined) | < 25% | 60%
3 | < 1 nM | < 1 nM | CCS(=O)(=O)N1CC=C(c2ccc3cc(O)c(N4CC(=O)NS4(=O)=O)c(F)c3c2)C1 | < 25% | > 90%
4 | < 1 nM | < 1 nM | O=C1CN(c2c(O)cc3ccc(-c4cnn(CC5CC5)c4)cc3c2F)S(=O)(=O)N1 | < 25% | 60%
5 | < 1 nM | > 100 nM | O=C1CN(c2c(O)cc3ccc(OCC4CCCOC4)cc3c2F)S(=O)(=O)N1 (centres undefined) | < 25% | 60%
6 | < 1 nM | < 1 nM | CC(C)(C#N)CCOc1cc2c(F)c(N3CC(=O)NS3(=O)=O)c(O)cc2cc1O |  | 
7 | < 1 nM | < 1 nM | O=C1CN(c2c(O)cc3ccc(OCCC4CC4(F)F)cc3c2F)S(=O)(=O)N1 (centres undefined) | < 25% | 60%
8 | > 10 nM | > 100 nM | CC(C)(O)CCOc1ccc2c(F)c(N3CC(=O)NS3(=O)=O)c(O)cc2c1 |  | 
9 | 1 nM | > 100 nM | O=C1CN(c2c(O)cc3ccc(NCCN4CCC4)cc3c2F)S(=O)(=O)N1 | < 25% | > 90%
10 | < 1 nM | 1 nM | C[C@H](O)CCOc1ccc2cc(O)c(N3CC(=O)NS3(=O)=O)c(F)c2c1 | < 25% | > 90%
11 | < 1 nM | < 1 nM | CC(C)(C#N)CCOc1ccc2cc(O)c(N3CC(=O)NS3(=O)=O)c(F)c2c1 | < 25% | 60%
12 | 1 nM | 1 nM | O=C1CN(c2c(O)cc3ccc(NCCC4CC4)cc3c2F)S(=O)(=O)N1 | < 25% | > 90%

Source: ChEMBL document CHEMBL5029191, “The Inhibitors of Protein Tyrosine Phosphatase Nonreceptor Type 2 (PTPN2) as Potential Enhancers of Cancer Immunotherapy and Type 1 (PTPN1) as Treatment of Metabolic Diseases” (ACS Med Chem Lett, 2022)
